Results as given in patent publication US5047337A, “Ceramide-glycanase” (priority 1987, dated 1991).

Tests used:
[1] = test system: leech ceramide-glycanase; assay: Hydrolysis of glycolipids with leech enzyme (TLC); type: biochemical, leech (Hirudo medicinalis, Macrobdella decora); details: 30 nmol substrate, pH 4.5, sodium taurodeoxycholate 200 μg, 37° C.
Experimental: Assays were performed in 10×75 mm glass tubes. […] Glycolipid substrates included LacCer, GbOse3 Cer, GbOse4 Cer, GbOse5 Cer, nLcOse4 Cer, GM3, GM2, GM1, GD1a and GT1. After the mixture was incubated at 37° C. for a preset time, the reaction was terminated by adding 5 volumes of chloroform:methanol (2:1). The mixture was vortexed and briefly centrifuged to separate the organic phase (lower) from the aqueous phase (upper). Under this condition the enzyme protein became insoluble and stayed at the interface. […] For detection of the released oligosaccharide, the aqueous phase was analyzed by thin-layer chromatography using n-butanol:acetic acid:H2 O (2:1:1) as the developing solvent. […] The chromatograms are seen in FIGS. 2 and 3.

[2] = test system: Annelid ceramide-glycanase; assay: Substrate specificity and pH optimum of annelid ceramide-glycanase from leeches and earthworms (general description); type: biochemical; details: enzyme obtained from leeches and earthworms
[3] = test system: earthworm ceramide-glycanase; assay: Hydrolysis of glycolipids with earthworm enzyme (TLC); type: biochemical, Lumbricus terrestris; details: 37° C.; for hydrolysis of the glycolipid by earthworm ceramide-glycanase: 20 nmol substrate, pH 4.5, sodium taurodeoxycholate 400 μg, 16 hours; for release of ceramides from the glycolipid by earthworm ceramide-glycanase: one unit enzyme, 17 h, TLC
Experimental: The assay for ceramide-glycanase was carried out essentially according to the method described above in Example 3. […] Glycolipid substrates included LacCer, GbOse3 Cer, GT1, […] and GlcCer. […] The mixture was vortexed and centrifuged to separate the organic phase (lower) from the aqueous phase (upper). […] For the detection of the released oligosaccharide, the aqueous phase was analyzed by TLC using n-butanol:acetic acid:H2 O (2:1:1) as the developing solvent. […] The chromatograms are seen in FIGS. 5 and 6.

hydrolysis of the glycosphingolipid by annelid ceramide-glycanase [2] | Substance | release of intact oligosaccharide from the glycolipid by leech ceramide-glycanase [1] | hydrolysis of the glycolipid by earthworm ceramide-glycanase [3] | release of ceramides from the glycolipid by earthworm ceramide-glycanase [3]
will not generally hydrolyze | galactosylceramide [GalCer] | – | refractory | –
hydrolyzes | globotriaosyl-ceramide [GbOse3 Cer] | able to liberate the intact oligosaccharide | – | able to release ceramides
will not generally hydrolyze | glucosylceramide [GlcCer] | – | refractory | –
hydrolyzes | GD1a | liberated an intact sialic acid containing oligosaccharide | – | able to release ceramides
hydrolyzes | globopentaoyl-ceramicde [GbOse5 Cer] | able to liberate the intact oligosaccharide | – | able to release ceramides
hydrolyzes | lactosyl-ceramide [LacCer] | able to liberate the intact oligosaccharide | hydrolyzed | able to release ceramides

The next lines start with the substance.

Substance | hydrolysis of the glycosphingolipid by annelid ceramide-glycanase [2] | release of intact oligosaccharide from the glycolipid by leech ceramide-glycanase [1] | hydrolysis of the glycolipid by earthworm ceramide-glycanase [3] | release of ceramides from the glycolipid by earthworm ceramide-glycanase [3]
lacto-N-neotetraoyl-ceramide [nLcOse4 Cer] | hydrolyzes | able to liberate the intact oligosaccharide | – | –
globotetraosyl-ceramide [GbOse4 Cer] | hydrolyzes | able to liberate the intact oligosaccharide | – | able to release ceramides
Galα1→4GalCer [DiGalCer] | – | – | not hydrolyzed | –
3-sulfo-lactosyl ceramide | hydrolyzes | – | – | –
